# Experiments:
# TNFα = test: Lipopolysaccharide (LPS) stimulated whole blood measuring TNFα levels assay; format: cell-based; settings: LPS 200 ng/ml, 24 hours, read-out: pIC50, TNFα levels in LPS stimulated whole blood (converted)
# Description: Activation of monocytic cells by agonists of toll-like receptors such as bacterial lipopolysaccharide (LPS) results in production of key inflammatory mediators including TNFα. Such pathways are widely considered to be central to the pathophysiology of a range of auto-immune and inflammatory disorders.
# After further incubation for 24 hours at 37 degrees, 140 ul of PBS are added to each well. The plates are sealed, shaken for 10 minutes and then centrifuged (2500 rpm×10 min). 100 ul of the supernatant are removed and TNFα levels assayed by immunoassay (typically by MesoScale Discovery technology) either immediately or following storage at −20 degrees. Dose response curves for each compound was generated from the data and an IC50 value was calculated.
# [1] = test system: Balb/c male mice given a lethal dose of LPS; test: In vivo mouse endotoxemia model; settings: 15 mg/kg LPS i.p., compound 10 mg/kg intravenously ninety minutes later; for Numbers of animals surviving at 4 days (summed across multiple repeat experiments): survivors/total
# Excerpt: High doses of Endotoxin (bacterial lipopolysaccharide) administered to animals produce a profound shock syndrome including a strong inflammatory response, dysregulation of cardiovascular function, organ failure and ultimately mortality. This pattern of response is very similar to human sepsis and septic shock, where the body's response to a significant bacterial infection can be similarly life threatening.
# To test the compounds for use in the invention groups of eight Balb/c male mice were given a lethal dose of 15 mg/kg LPS by intraperitoneal injection. Ninety minutes later, animals were dosed intravenously with vehicle (20% cyclodextrin 1% ethanol in apyrogen water) or compound (10 mg/kg). The survival of animals was monitored at 4 days.
smiles,measurement,setting,value
"CNCc1ccc(-c2ccc3c(c2)[C@H](NC(=O)OC(C)C)C[C@H](C)N3C(C)=O)cc1 [Example 1, 1-methylethyl ((2S,4R)-1-acetyl-2-methyl-6-{4-[(methylamino)methyl]phenyl}-1,2,3,4-tetrahydro-4-quinolinyl)carbamate]",IC50,TNFα,≤ 1000 nM
"COc1cc2c(cc1-c1c(C)noc1C)ncc1[nH]c(=O)n([C@H](C)c3ccccn3)c12 [Example 3, 7-(3,5-dimethyl-4-isoxazolyl)-8-(methoxy)-1-[(1R)-1-(2-pyridinyl)ethyl]-1,3-dihydro-2H-imidazo[4,5-c]quinolin-2-one]","Animals surviving at 4 days, percent",[1],(83%)
same,Numbers of animals surviving at 4 days (summed across multiple repeat experiments),[1],55/66
same,IC50,TNFα,≤ 1000 nM
"COc1cc2c(cc1-c1c(C)noc1C)ncc1nc(C3CCOCC3)n([C@H](C)c3ccccc3)c12 [Example 4, 7-(3,5-dimethyl-4-isoxazolyl)-8-(methoxy)-1-[(1R)-1-phenylethyl]-2-(tetrahydro-2H-pyran-4-yl)-1H-imidazo[4,5-c]quinoline]","Animals surviving at 4 days, percent",[1],(38%)
same,Numbers of animals surviving at 4 days (summed across multiple repeat experiments),[1],9/24
same,IC50,TNFα,≤ 1000 nM
"CC(=O)N1c2ccc(-c3ccc(C(=O)O)cc3)cc2[C@H](Nc2ccc(Cl)cc2)C[C@@H]1C [Example 5, 4-{(2S,4R)-1-acetyl-4-[(4-chlorophenyl)amino]-2-methyl-1,2,3,4-tetrahydro-6-quinolinyl}benzoic acid]","Animals surviving at 4 days, percent",[1],(58%)
same,Numbers of animals surviving at 4 days (summed across multiple repeat experiments),[1],14/24
same,IC50,TNFα,≤ 1000 nM
"Cc1nnc2c(NC(N)=O)cc3cc(-c4ccc(CN5CCCCC5)cc4)ccc3n12 [Example 6, N-{1-methyl-7-[4-(1-piperidinylmethyl)phenyl][1,2,4]triazolo[4,3-a]quinolin-4-yl}urea]",IC50,TNFα,≤ 1000 nM
same,melting point,,> 260 °C

# Source: patent US20150133436A1, “Bromodomain Inhibitors For Treating Autoimmune And Inflammatory Diseases” (GlaxoSmithKline LLC, priority 2009, published 2015)
